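48-hour exposure; five concentrations; linearly interpolated endpoints. GI50 = concentration required for 50% inhibition of growth. At the TGI there is no net growth.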

GI50 and TGI data for 15 compounds are collected here from PubChem BioAssay (NCI).

Among the test systems are SF-539 CNS; U251 CNS; A498 renal; RPMI-8226 leukemia; SF-268 CNS; UACC-257 melanoma; CCRF-CEM leukemia; ACHN renal; HL-60(TB) leukemia; A549 NSCLC.
Holding throughout (test): NCI-60 cell line screen, 48 h

As for `Nc1ncnc2c1ccn2-c1cccc(NC(=O)c2ccc(N3CCOCC3)c(C(F)(F)F)c2)c1`, the GI50 in the assay with SF-539 CNS was 2.39 µM; in the assay on U251 CNS, 2.41 µM; with A498 renal it was 3.06 µM; with RPMI-8226 leukemia it was 1.39 µM; in the assay on SF-268 CNS, 3.44 µM; with UACC-257 melanoma, 4.99 µM. In addition, the GI50 was 2.07 µM in the assay on CCRF-CEM leukemia, 2.88 µM with ACHN renal, 3.17 µM in the assay with HL-60(TB) leukemia and 3.41 µM in the assay with A549 NSCLC. In addition, the TGI worked out at 15.4 µM in the assay with SF-539 CNS; 6.44 µM with U251 CNS; 12.8 µM in the assay with A498 renal; 4.04 µM in the assay with RPMI-8226 leukemia; 13.1 µM in the assay with SF-268 CNS; 22.1 µM in the assay on UACC-257 melanoma. In addition, the TGI in the assay with CCRF-CEM leukemia turned out to be 11.8 µM; in the assay on ACHN renal, 10.5 µM; with HL-60(TB) leukemia, 8.07 µM; in the assay on A549 NSCLC, 15.2 µM.
As for `C#CCNC(=O)CC[C@@H](C)[C@H]1CC[C@H]2[C@@H]3CC[C@@H]4CC(=O)CC[C@]4(C)[C@H]3CC[C@]12C`, the GI50 in the assay with SF-539 CNS is 14.1 µM; in the assay on U251 CNS, 15.8 µM; in the assay on A498 renal it was 25 µM; with RPMI-8226 leukemia, 1.82 µM; in the assay with SF-268 CNS, 17.5 µM; with UACC-257 melanoma, 13.2 µM. In addition, the GI50 was 4.39 µM in the assay with CCRF-CEM leukemia, 14.9 µM in the assay on ACHN renal, 3.47 µM in the assay on HL-60(TB) leukemia and 17.4 µM with A549 NSCLC. The TGI in the assay on SF-539 CNS is 30.4 µM; in the assay with U251 CNS it was 39.4 µM; in the assay on A498 renal it was greater than 100 µM; with RPMI-8226 leukemia, 19.1 µM; in the assay on SF-268 CNS, 44.4 µM; with UACC-257 melanoma, 42.3 µM. Further, the TGI is 24.1 µM with CCRF-CEM leukemia, 32.4 µM with ACHN renal, 18 µM with HL-60(TB) leukemia and greater than 100 µM in the assay with A549 NSCLC.
As to `COc1cccc(/C=N/[N-]C(N)=O)c1[O-].[Co+2].[OH3+].c1ccncc1`, the TGI with SF-539 CNS, in the assay on U251 CNS, in the assay on RPMI-8226 leukemia, in the assay with SF-268 CNS, in the assay on UACC-257 melanoma and in the assay on CCRF-CEM leukemia was greater than 100 µM each time. In addition, the TGI in the assay with ACHN renal, with HL-60(TB) leukemia and with A549 NSCLC was greater than 100 µM in each case. Moreover, in the assay on HL-60(TB) leukemia, the GI50 was 30.8 µM.
With `O=C1OC(c2ccccc2Br)=N/C1=C/c1ccccc1`, the TGI with SF-539 CNS is 37.9 µM; in the assay on U251 CNS it was 69.7 µM; with A498 renal, greater than 100 µM; in the assay with RPMI-8226 leukemia, greater than 100 µM; in the assay with SF-268 CNS, greater than 100 µM; in the assay with UACC-257 melanoma, greater than 100 µM. In addition, the TGI in the assay with CCRF-CEM leukemia was greater than 100 µM; in the assay with ACHN renal it was 77.5 µM; with HL-60(TB) leukemia, greater than 100 µM; in the assay on A549 NSCLC it was greater than 100 µM.
For `c1cc(CSc2ncnc3nc[nH]c23)ccn1`, the TGI in the assay with SF-539 CNS, in the assay on U251 CNS, with A498 renal, with RPMI-8226 leukemia, in the assay on SF-268 CNS and with UACC-257 melanoma was greater than 100 µM in each case. For the same compound, the TGI with CCRF-CEM leukemia, with ACHN renal, in the assay with HL-60(TB) leukemia and with A549 NSCLC was greater than 100 µM each time.
In the case of `CC1OC(CO)(n2cnc3c(N)ncnc32)C(O)C1O` (stereo not drawn), the TGI in the assay with SF-539 CNS, in the assay with U251 CNS, with A498 renal, in the assay with RPMI-8226 leukemia, with SF-268 CNS and with UACC-257 melanoma was greater than 100 µM each time. For the same compound, the TGI in the assay on CCRF-CEM leukemia, with HL-60(TB) leukemia and in the assay with A549 NSCLC was greater than 100 µM in each case.
Regarding `COc1cc(N(CCCl)CCCl)ccc1/C=N\NC(=O)c1cccnc1`, the GI50 in the assay with SF-539 CNS is 27.3 µM; in the assay with U251 CNS, 23.8 µM; in the assay with A498 renal it was 0.523 µM; in the assay with RPMI-8226 leukemia, 30.9 µM; in the assay with SF-268 CNS, 36.6 µM; with UACC-257 melanoma, 15.3 µM. The GI50 in the assay on CCRF-CEM leukemia is 23 µM; in the assay with ACHN renal it was 17 µM; with HL-60(TB) leukemia, 11.4 µM; in the assay with A549 NSCLC it was 12.1 µM. Further, the TGI in the assay on SF-539 CNS was greater than 100 µM; in the assay on U251 CNS, greater than 100 µM; with A498 renal it was 1.98 µM; with RPMI-8226 leukemia, greater than 100 µM; with SF-268 CNS, greater than 100 µM; with UACC-257 melanoma it was 63.3 µM. The TGI was greater than 100 µM in the assay on CCRF-CEM leukemia, greater than 100 µM in the assay on ACHN renal, 40.4 µM in the assay on HL-60(TB) leukemia and greater than 100 µM in the assay on A549 NSCLC.
Regarding `NC(CSCSCC(N)C(=O)O)C(=O)O` (stereo not drawn), the TGI with SF-539 CNS, in the assay with U251 CNS, in the assay on A498 renal, with RPMI-8226 leukemia, in the assay with SF-268 CNS and in the assay with UACC-257 melanoma was greater than 225 µM throughout. Besides, the TGI with CCRF-CEM leukemia is greater than 71.2 µM; in the assay with HL-60(TB) leukemia, greater than 225 µM; with A549 NSCLC, greater than 225 µM.
Regarding `CCCCCCCCCCCCCCCCCCOc1ccccc1COP(=O)(O)OOCC[N+](C)(C)C`, the GI50 is 1.19 µM in the assay on SF-539 CNS; 6.88 µM with A498 renal; 1.55 µM in the assay with SF-268 CNS; 1.54 µM in the assay with UACC-257 melanoma; 0.751 µM in the assay with CCRF-CEM leukemia; 1.45 µM in the assay with ACHN renal. Also, the GI50 with HL-60(TB) leukemia was 0.846 µM; in the assay with A549 NSCLC it was 5.5 µM. In addition, the TGI in the assay with SF-539 CNS stood at 3.02 µM; with A498 renal, 17.2 µM; with SF-268 CNS it was 7.19 µM; in the assay with UACC-257 melanoma, 6.45 µM; in the assay with CCRF-CEM leukemia it was 2.02 µM; in the assay on ACHN renal, 5.62 µM. In addition, the TGI with HL-60(TB) leukemia amounted to 2.19 µM; in the assay on A549 NSCLC it was 23.6 µM.
In the case of `O=c1oc2ccccc2n1P(=O)(Oc1ccc(Cl)cc1)n1c(=O)oc2ccccc21`, the TGI in the assay on SF-539 CNS, in the assay on U251 CNS, in the assay with A498 renal, in the assay with SF-268 CNS, in the assay with UACC-257 melanoma and in the assay with CCRF-CEM leukemia was greater than 100 µM throughout. Further, the TGI in the assay with ACHN renal, in the assay on HL-60(TB) leukemia and in the assay on A549 NSCLC was greater than 100 µM each time.
With `Cc1cc(N=Cc2c(CO)cnc(C)c2O)c(N=Cc2c(CO)cnc(C)c2O)cc1C`, the TGI in the assay with SF-539 CNS, in the assay with U251 CNS, in the assay on A498 renal, in the assay with RPMI-8226 leukemia, in the assay with SF-268 CNS and in the assay on UACC-257 melanoma was greater than 100 µM each time. In addition, the TGI in the assay with CCRF-CEM leukemia was 80 µM; in the assay on ACHN renal, greater than 100 µM; in the assay with HL-60(TB) leukemia, greater than 100 µM; in the assay with A549 NSCLC, greater than 100 µM. The results for the GI50 with RPMI-8226 leukemia and with HL-60(TB) leukemia were 26.1 µM and 0.0212 µM, respectively.
Take `CCOC(=O)c1cc([N+](=O)[O-])c(Sc2ncnc3nc[nH]c23)c([N+](=O)[O-])c1`: the TGI in the assay on SF-539 CNS was 13.4 µM; with U251 CNS, 22.8 µM; with A498 renal, 25.6 µM; in the assay on RPMI-8226 leukemia, 6.08 µM; in the assay on SF-268 CNS, 17.8 µM; in the assay with UACC-257 melanoma it was 20.6 µM. Also, the TGI in the assay with CCRF-CEM leukemia is 4.39 µM; with ACHN renal, 19.9 µM; with HL-60(TB) leukemia, 23.4 µM; with A549 NSCLC, 55.6 µM.
Take `CON[N+]([O-])=NC(C)C`: the TGI in the assay on SF-539 CNS, in the assay with U251 CNS, in the assay with A498 renal, in the assay on RPMI-8226 leukemia, in the assay on SF-268 CNS and in the assay with UACC-257 melanoma was greater than 100 µM throughout. In addition, the TGI with CCRF-CEM leukemia, with ACHN renal, in the assay with HL-60(TB) leukemia and in the assay on A549 NSCLC was greater than 100 µM each time.
Turning to `O=C1CCC2COc3ccc(O)c1c32` (stereo not drawn), the TGI in the assay with SF-539 CNS, in the assay on U251 CNS, in the assay with A498 renal, in the assay with RPMI-8226 leukemia, in the assay with UACC-257 melanoma and in the assay with CCRF-CEM leukemia was greater than 100 µM in each case. Also, the TGI in the assay with ACHN renal, in the assay with HL-60(TB) leukemia and with A549 NSCLC was greater than 100 µM in each case.
Turning to `CC(C)(C)CI`, the TGI in the assay with SF-539 CNS was greater than 100 µM; with U251 CNS, 66.4 µM; in the assay with A498 renal, greater than 100 µM; in the assay on SF-268 CNS it was greater than 100 µM; with UACC-257 melanoma it was 51.6 µM; in the assay with CCRF-CEM leukemia, 50.8 µM. The TGI in the assay with ACHN renal was determined as 58.5 µM; in the assay with HL-60(TB) leukemia, 50.4 µM; in the assay on A549 NSCLC, 73.1 µM.
